US20130317214A1, “METHOD FOR PRODUCING MALEATE USING WET CRYSTAL” (KYORIN PHARMACEUTICAL CO., LTD., priority 2010, published 2013)

What was measured:
[1] = Stability test of compound (2) (powder X-ray diffraction); type: physicochemical; settings: sealed in a brown bottle, stored at 25° C. for 2 weeks and 4 weeks
Procedure: A filling section of a plate sample holder made of glass was filled with a sample, and powder x-ray diffraction of the sample was then measured using RINT2200 powder x-ray diffractometer manufactured by Rigaku Corporation.
Tube current: 36 mA Tube voltage: 40 kV Scanning rate: 2°/min wavelength: 1.5405 Å (Kα1), 1.5443 Å (Kα2), 1.3922 Å (Kβ1) Divergence slit: 1° Receiving slit: 0.15 mm Scattering slit: 1° Anticathode: copper Scanning range: 5 to 40°
The wet crystal of the compound (2) (Example 1) and the dried product (Reference Example 1) were each sealed in a brown bottle, and stored at 25° C. for 2 weeks and 4 weeks. After the storage, the powder x-ray diffraction of each sample was measured in accordance with the method of Test Example 1.

[2] = Stability test of compound (2) (physical properties); type: physicochemical; settings: for physical properties when stored under a condition of 30° C.: storage time not given

| physical properties when stored under a condition of 30° C. [2] | physical properties on 3 days after the storage at 30° C. ([2]; sealed in a brown bottle, 3 days) | Structure (SMILES) | crystal state by powder x-ray diffraction after storage [1] |
| --- | --- | --- | --- |
| the state of white powder was maintained | – | CCc1cc(OC)cc2nc(-c3cccnc3N3CC[C@H](N(C)C)C3)oc(=O)c12 [wet crystal of the compound (2)] | change in the crystal state of the wet crystal of the compound (2) was not observed |
| changed into a glassy solid | changed into a glassy mass | CCc1cc(OC)cc2nc(-c3cccnc3N3CC[C@H](N(C)C)C3)oc(=O)c12 [dried product of the compound (2)] | complete amorphous form |
